Inconclusive results and toxic doses are left out. Cut-off read from the data, not from the text of the source: active = T/C of 150% or more; inactive = T/C below 125%.
Tested on: L1210 leukemia ip in BDF1 mice, survival T/C
Assay: NCI In Vivo Anticancer Drug Screen. Data for tumor model L1210 Leukemia (intraperitoneal) in B6D2F1 (BDF1) mice
Details: endpoint: mean survival time, higher = longer survival
Procedure, shortened: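 Transplanted-tumor mice were given test agent; controls received vehicle only. Survival readings from the two groups were divided (treated over control).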

[1] = dose: 100.0 mg/kg/injection, schedule: Q01DX009 (ip), vehicle: saline with Tween-80
[2] = dose: 200.0 mg/kg/injection, schedule: Q01DX009 (ip), vehicle: saline with Tween-80
[3] = dose: 100.0 mg/kg/injection, schedule: Q04DX003 (ip), vehicle: saline with Tween-80
[4] = dose: 200.0 mg/kg/injection, schedule: Q04DX003 (ip), vehicle: saline with Tween-80
[5] = dose: 400.0 mg/kg/injection, schedule: Q04DX003 (ip), vehicle: saline with Tween-80
[6] = dose: 100.0 mg/kg/injection, schedule: Q01DX009 (ip), vehicle: Klucel (hydroxypropylcellulose) (HPC)
[7] = dose: 200.0 mg/kg/injection, schedule: Q01DX009 (ip), vehicle: Klucel (hydroxypropylcellulose) (HPC)
[8] = dose: 100.0 mg/kg/injection, schedule: Q01DX001 (ip), vehicle: saline
[9] = dose: 100.0 mg/kg/injection, schedule: Q04DX003 (ip), vehicle: Klucel (hydroxypropylcellulose) (HPC)
[10] = dose: 200.0 mg/kg/injection, schedule: Q04DX003 (ip), vehicle: Klucel (hydroxypropylcellulose) (HPC)
[11] = dose: 400.0 mg/kg/injection, schedule: Q04DX003 (ip), vehicle: Klucel (hydroxypropylcellulose) (HPC)
[12] = dose: 100.0 mg/kg/injection, schedule: Q04DX003 (ip), vehicle: saline

Measured: T/C

CC1(C)OC2COC(c3[nH]nc(C(N)=O)c3C(=O)N=[N+]=[N-])C2O1 (stereo not drawn)
inactive: dose: 100.0 mg/kg/injection, schedule: Q01DX005 (ip), vehicle: saline 101 % of control | dose: 200.0 mg/kg/injection, schedule: Q01DX005 (ip), vehicle: saline 101 % of control

OCCN1CCSC1=S
inactive: [1] 87 % of control | [2] 88 % of control

CC(=O)c1ccc2c3c(cccc13)CC2
inactive: [1] 102 % of control | [3] 88 % of control | [2] 98 % of control | [4] 104 % of control | dose: 400.0 mg/kg/injection, schedule: Q01DX009 (ip), vehicle: saline with Tween-80 101 % of control | [5] 97 % of control

Nc1ncnc(N)c1N(C=O)Cc1ccccc1
inactive: dose: 100.0 mg/kg/injection, schedule: Q01DX001 (ip), vehicle: acetone 96 % of control | dose: 200.0 mg/kg/injection, schedule: Q01DX001 (ip), vehicle: acetone 94 % of control | dose: 400.0 mg/kg/injection, schedule: Q01DX001 (ip), vehicle: acetone 91 % of control

N/C(=N\O)c1cccnc1
inactive: dose: 25.0 mg/kg/injection, schedule: Q01DX009 (ip), vehicle: water 98 % of control | dose: 50.0 mg/kg/injection, schedule: Q01DX009 (ip), vehicle: water 106 % of control | [1] 100 % of control | dose: 100.0 mg/kg/injection, schedule: Q01DX009 (ip), vehicle: water 101 % of control | dose: 100.0 mg/kg/injection, schedule: Q04DX003 (ip), vehicle: water 100 % of control | [2] 96 % of control | dose: 200.0 mg/kg/injection, schedule: Q01DX009 (ip), vehicle: water 97 % of control | dose: 200.0 mg/kg/injection, schedule: Q04DX003 (ip), vehicle: water 107 % of control

CC1=C(Cl)C(Cl)(Cl)C(=O)C(=O)C1(Cl)Cl
inactive: dose: 6.25 mg/kg/injection, schedule: Q01DX009 (ip), vehicle: saline sonified 100 % of control | dose: 6.25 mg/kg/injection, schedule: Q04DX003 (ip), vehicle: Klucel (hydroxypropylcellulose) (HPC) 100 % of control | dose: 12.5 mg/kg/injection, schedule: Q01DX009 (ip), vehicle: saline sonified 102 % of control | dose: 12.5 mg/kg/injection, schedule: Q04DX003 (ip), vehicle: Klucel (hydroxypropylcellulose) (HPC) 95 % of control | dose: 25.0 mg/kg/injection, schedule: Q01DX009 (ip), vehicle: saline sonified 92 % of control | dose: 25.0 mg/kg/injection, schedule: Q04DX003 (ip), vehicle: Klucel (hydroxypropylcellulose) (HPC) 95 % of control

Cc1ccc(OC/C=C/CS(=O)(=O)c2ccc(C)cc2)cc1
inactive: dose: 50.0 mg/kg/injection, schedule: Q01DX009 (ip), vehicle: Klucel (hydroxypropylcellulose) (HPC) 100 % of control | dose: 75.0 mg/kg/injection, schedule: Q01DX001 (ip), vehicle: Klucel (hydroxypropylcellulose) (HPC) 93 % of control | [6] 98 % of control | dose: 150.0 mg/kg/injection, schedule: Q01DX001 (ip), vehicle: Klucel (hydroxypropylcellulose) (HPC) 98 % of control | [7] 98 % of control | dose: 300.0 mg/kg/injection, schedule: Q01DX001 (ip), vehicle: Klucel (hydroxypropylcellulose) (HPC) 95 % of control

COC(=O)c1sccc1C=O
inactive: dose: 50.0 mg/kg/injection, schedule: Q01DX001 (ip), vehicle: saline 103 % of control | [8] 100 % of control | [9] 100 % of control | dose: 100.0 mg/kg/injection, schedule: Q04DX003 (ip), vehicle: acetone 98 % of control | dose: 200.0 mg/kg/injection, schedule: Q01DX001 (ip), vehicle: saline 100 % of control | [10] 104 % of control | dose: 200.0 mg/kg/injection, schedule: Q04DX003 (ip), vehicle: acetone 102 % of control | dose: 400.0 mg/kg/injection, schedule: Q01DX001 (ip), vehicle: saline 97 % of control | [11] 105 % of control | dose: 400.0 mg/kg/injection, schedule: Q04DX003 (ip), vehicle: acetone 89 % of control

O=C(Nc1ccccn1)Nc1cccc2ccccc12
inactive: dose: 100.0 mg/kg/injection, schedule: Q04DX002 (ip), vehicle: Klucel (hydroxypropylcellulose) (HPC) 103 % of control | dose: 200.0 mg/kg/injection, schedule: Q04DX002 (ip), vehicle: Klucel (hydroxypropylcellulose) (HPC) 97 % of control | dose: 400.0 mg/kg/injection, schedule: Q04DX002 (ip), vehicle: Klucel (hydroxypropylcellulose) (HPC) 87 % of control

Cc1cc(C)c(S(=O)(=O)NN)c(C)c1
inactive: [3] 94 % of control | [4] 90 % of control

CNCCOC
inactive: dose: 100.0 mg/kg/injection, schedule: Q04DX002 (ip), vehicle: saline 98 % of control

COC(=O)c1ccccc1NC(=O)Cc1ccccc1
inactive: [6] 91 % of control | [7] 98 % of control | dose: 400.0 mg/kg/injection, schedule: Q01DX009 (ip), vehicle: Klucel (hydroxypropylcellulose) (HPC) 98 % of control

O=C(O)C(O)C(Br)C(=O)O (stereo not drawn)
inactive: dose: 50.0 mg/kg/injection, schedule: Q04DX003 (ip), vehicle: saline 95 % of control | [8] 95 % of control | [12] 104 % of control

O=C(/C=C/c1cccc(Cl)c1)c1ccccc1
inactive: dose: 50.0 mg/kg/injection, schedule: Q04DX002 (ip), vehicle: saline with Tween-80 108 % of control | dose: 100.0 mg/kg/injection, schedule: Q04DX002 (ip), vehicle: saline with Tween-80 115 % of control | dose: 200.0 mg/kg/injection, schedule: Q04DX002 (ip), vehicle: saline with Tween-80 97 % of control

O=C1C=C(Nc2ccccc2)C(=O)C=C1Nc1ccccc1
inactive: [3] 86 % of control | [4] 86 % of control | [5] 86 % of control

O=C(O)/C=C/C(=O)N1Cc2cc3ccccc3nc2C1
inactive: dose: 10.0 mg/kg/injection, schedule: Q04DX003 (ip), vehicle: saline 99 % of control | dose: 20.0 mg/kg/injection, schedule: Q04DX003 (ip), vehicle: saline 99 % of control | dose: 40.0 mg/kg/injection, schedule: Q04DX003 (ip), vehicle: saline 105 % of control | dose: 80.0 mg/kg/injection, schedule: Q04DX003 (ip), vehicle: saline 100 % of control | dose: 160.0 mg/kg/injection, schedule: Q04DX003 (ip), vehicle: saline 96 % of control

CC1CN1CCC(=O)Nc1ccc(Cl)c(Cl)c1 (stereo not drawn)
inactive: dose: 50.0 mg/kg/injection, schedule: Q04DX003 (ip), vehicle: Klucel (hydroxypropylcellulose) (HPC) 97 % of control | [9] 105 % of control | [10] 100 % of control | [11] 106 % of control

CN(C)c1ccc2c(c1)C(Br)c1ccccc1-2 (stereo not drawn)
inactive: [6] 106 % of control | [9] 94 % of control | [7] 107 % of control | [10] 96 % of control | [11] 97 % of control

CCCCCCCCC(CO)CCCCCC (stereo not drawn)
inactive: [12] 100 % of control | dose: 200.0 mg/kg/injection, schedule: Q04DX003 (ip), vehicle: saline 106 % of control | dose: 400.0 mg/kg/injection, schedule: Q04DX003 (ip), vehicle: saline 92 % of control

From PubChem BioAssay AID248 (DTP/NCI, 2004)
